In data set [1] the target is MMP9 (Homo sapiens, UniProt P14780). Nature of the data set: MMP activity assay (fluorogenic substrate), MMP9 catalytic domain. The format is biochemical. As to conditions: Table 2.
Data set [2] deals with MMP2 (Homo sapiens, UniProt P08253). Nature of the data set: MMP activity assay (fluorogenic substrate), MMP2 catalytic domain. The class given is biochemical.
Data set [3] deals with MMP-9 (Rattus norvegicus (Rat), UniProt P50282). Nature of the data set: In vitro zymography assay (gelatin), MMP-9. The format is biochemical. As to conditions: % ± SD. The procedure:
(§1) MMP-2 and MMP-9 enzymes were isolated from rat hearts and from rat spleen while human, recombinant MMP-1 and MMP-13 enzymes used were commercial. MMP-2, -9, -13 enzymes were separated by electrophoresis during non-reducing conditions on 8% SDS-polyacrylamide gels copolymerized with 2 mg/ml gelatin from porcine skin (Sigma Aldrich) while MMP-1 was separated under the same conditions on 8% SDS-polyacrylamide gels copolymerized with 2 mg/ml casein (Sigma Aldrich). […] In case of MMP-13 p-aminophenylmercuric acetate (APMA) was used for enzyme activation at 37° C. for 30 min. After electrophoresis, gels were washed in 2.5% Triton-X 100 with agitation and then incubated for 20 hrs at 37° C. in enzyme incubation buffer (50 mM Tris-HCl, pH 7.5, containing 5 mM CaCl2, 200 mM NaCl) with or without MMP inhibitor. Zymographic gels were stained in Coomassie Brilliant Blue R-250 and de-stained. Gelatin and casein zymograms were scanned. MMP activity is detected as a white zone on a blue background and the clear bands in the gel can be quantified by densitometry. The obtained density values were measured and % inhibition values calculated (Kupai et al., 2010). The table below summarizes the prescreen inhibition values determined for different MMP inhibitors on MMP1, -2, -9, -13.

The target in data set [4] is MMP-2 (Rattus norvegicus (Rat), UniProt P33436). Nature of the data set: In vitro zymography assay (gelatin), MMP-2. The format is biochemical. The procedure:
as §1

Data set [5] can be described thus: Cytotoxicity, alamarBlue viability, HCT116. The class given is cell-based. As to conditions: human, HCT116 colon tumor cells, 48 hours incubation, read-out: HCT116 LC50. Summed up: (§2)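 Cells exposed to compound dilutions for 48 hours, then alamarBlue added for 4 hours; fluorescence read at ex 540/em 590 nm. IC50 from six concentrations run in duplicate.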
A short description of data set [6]: Cytotoxicity, alamarBlue viability, MRC-5. As to conditions: human, MRC-5 fibroblast cells, 48 hours incubation, read-out: MRC-5 LC50. The format is cell-based. Summed up:
as §2

The structures appear in SMILES notation. Read-outs that look alike come from different tables or passages of the source.

Sequence of MMP-2 (P33436 110-662): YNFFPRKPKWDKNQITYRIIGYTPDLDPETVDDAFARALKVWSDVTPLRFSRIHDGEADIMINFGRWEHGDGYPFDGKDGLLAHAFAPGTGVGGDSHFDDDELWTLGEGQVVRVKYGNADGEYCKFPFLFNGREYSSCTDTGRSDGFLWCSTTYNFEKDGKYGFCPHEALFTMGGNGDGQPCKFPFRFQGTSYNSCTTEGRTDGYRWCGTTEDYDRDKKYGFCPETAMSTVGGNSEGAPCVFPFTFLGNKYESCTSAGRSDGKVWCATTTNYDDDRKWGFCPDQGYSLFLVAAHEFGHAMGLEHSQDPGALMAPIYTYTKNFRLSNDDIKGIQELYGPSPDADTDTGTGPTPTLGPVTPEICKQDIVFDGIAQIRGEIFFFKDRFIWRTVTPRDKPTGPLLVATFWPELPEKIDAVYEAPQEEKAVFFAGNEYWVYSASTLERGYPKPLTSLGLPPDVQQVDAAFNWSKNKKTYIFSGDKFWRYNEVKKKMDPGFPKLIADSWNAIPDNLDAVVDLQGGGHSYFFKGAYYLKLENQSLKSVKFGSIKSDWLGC
Sequence of MMP-9 (P50282 108-708): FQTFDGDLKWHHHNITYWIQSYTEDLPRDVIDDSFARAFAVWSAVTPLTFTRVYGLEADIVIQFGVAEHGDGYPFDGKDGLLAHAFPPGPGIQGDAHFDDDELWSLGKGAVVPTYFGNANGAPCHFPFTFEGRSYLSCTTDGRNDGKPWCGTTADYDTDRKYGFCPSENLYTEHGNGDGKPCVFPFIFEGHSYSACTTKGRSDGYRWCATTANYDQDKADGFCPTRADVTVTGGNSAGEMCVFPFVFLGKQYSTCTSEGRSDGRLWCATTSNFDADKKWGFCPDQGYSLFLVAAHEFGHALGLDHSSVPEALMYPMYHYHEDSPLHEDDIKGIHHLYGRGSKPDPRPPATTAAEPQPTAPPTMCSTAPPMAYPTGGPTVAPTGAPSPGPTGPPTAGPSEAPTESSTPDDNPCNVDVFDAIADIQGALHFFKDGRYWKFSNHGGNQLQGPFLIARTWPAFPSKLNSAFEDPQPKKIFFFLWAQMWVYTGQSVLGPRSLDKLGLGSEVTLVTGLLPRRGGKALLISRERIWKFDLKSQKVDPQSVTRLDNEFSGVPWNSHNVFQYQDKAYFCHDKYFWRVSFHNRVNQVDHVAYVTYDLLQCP

As usually defined, the IC50 is the midpoint of a concentration-inhibition curve. In general, inhibition refers to how much of the control response was suppressed. For `O=C(O)c1csc(CN(Cc2ccc(F)cc2)Cc2ccc(OCc3cccnc3)cc2)n1` [Compound 1, 2-({[(4-Fluorophenyl)methyl]({[4-(pyridin-3-ylmethoxy)phenyl]methyl})amino}methyl)-1,3-thiazole-4-carboxylic acid], the IC50 in data set [1] is 37 µM; in data set [2] (Table 2, read-out: MMP2 IC50), 5.7 µM; in data set [2] (read-out: IC50 on MMP2), 5.7 µM; in data set [4] (zymography, Table 8, read-out: IC50 on MMP-2), 11.2 µM. The “% inhibition MMP-9 (92 kDa)” value in data set [3] (1 μM) and in data set [3] (100 μM) was “No inhibition” throughout. Also, the inhibition at 1 µM in data set [4] (1 μM, % ± SD, read-out: % inhibition MMP-2 (72 kDa)) amounted to 100%. Besides, in data set [4] (100 μM, % ± SD, read-out: % inhibition MMP-2 (72 kDa)), the inhibition at 100 µM was 100%. Moreover, the “selectivity in the inhibition of different MMP isoenzymes” value in data set [4] (summary in words, MMP1, MMP2, MMP9, MMP13) is recorded as “highly selective for MMP2”. For the same compound, the CC50 at 48 h in data set [5] came out at 11 µM; in data set [6], 25 µM.
